The values that follow are results of earlier work, collected in patent US8747895B2 (priority 2004, dated 2014).

Where two headings read alike, the source gives them in different places.

The conditions of this data set: for absolute bioavailability: oral administration.

As to “(−)-N-Methyl-3-(o-tolyloxy)-propylamine hydrochloride [Atomoxetine]”, the absolute bioavailability runs as follows: (EMs (extensive metabolizers)) 63%; (PMs (poor metabolizers)) 94%. The “delay of Tmax with food” value (standard high-fat meal) is 3 h. For the setting “standard high-fat meal”, the “lower Cmax with food” value is reported as 10-37%.
